Measured values as given in PMC12127850 (RSC Medicinal Chemistry, 2025).
Where a name gives a salt, the structure may show the parent alone. Values belong to the compound of their own block, whether it stands above or below them.

Columns and labels:
Type in all cases: cell-based
[1] = molecular target: T1, prostate-specific membrane antigen (PSMA) (Homo sapiens, UniProt Q04609); test: blocking of […]-PSiMA uptake in LNCaP cells by […] 2-PMPA
[2] = molecular target: T1, prostate-specific membrane antigen (PSMA); test: in vivo PET blocking of […]-PSiMA uptake in LNCaP tumors
[3] = molecular target: T1, prostate-specific membrane antigen (PSMA); test: competitive displacement of […]-PSMA-1007 in PSMA-expressing LNCaP cells

T1 sequence (Q04609 whole entry): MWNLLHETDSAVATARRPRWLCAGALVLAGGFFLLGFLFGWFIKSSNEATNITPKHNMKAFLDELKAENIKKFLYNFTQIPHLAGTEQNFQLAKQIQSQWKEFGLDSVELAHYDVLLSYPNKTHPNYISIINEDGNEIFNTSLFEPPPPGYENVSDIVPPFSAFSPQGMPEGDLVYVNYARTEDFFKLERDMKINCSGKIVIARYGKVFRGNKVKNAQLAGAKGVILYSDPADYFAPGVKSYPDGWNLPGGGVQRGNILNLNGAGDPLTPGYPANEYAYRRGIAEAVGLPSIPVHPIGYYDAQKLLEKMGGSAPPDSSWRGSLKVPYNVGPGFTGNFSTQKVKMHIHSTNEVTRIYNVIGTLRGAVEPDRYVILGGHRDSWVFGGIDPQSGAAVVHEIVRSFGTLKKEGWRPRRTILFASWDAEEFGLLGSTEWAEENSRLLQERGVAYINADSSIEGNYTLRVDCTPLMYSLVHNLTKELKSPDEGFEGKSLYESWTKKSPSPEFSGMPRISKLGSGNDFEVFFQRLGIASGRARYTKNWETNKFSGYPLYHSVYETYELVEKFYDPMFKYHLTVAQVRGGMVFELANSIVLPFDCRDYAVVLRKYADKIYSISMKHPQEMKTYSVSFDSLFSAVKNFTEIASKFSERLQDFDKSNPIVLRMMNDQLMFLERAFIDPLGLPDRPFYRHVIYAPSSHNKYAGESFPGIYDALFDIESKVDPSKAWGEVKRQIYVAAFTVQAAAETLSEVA

SMILES: O=C(O)CCC(CP(=O)(O)O)C(=O)O (stereo not drawn) [2-PMPA, 2-(phosphonomethyl)pentanedioic acid]
% blocking at 1 μM [1]: 75 % blocking at 1 μM

% reduction of tumor uptake [2]: 20 ± 10 % reduction of tumor uptake
SMILES: O=C(O)CC[C@H](NC(=O)N[C@@H](CCCCNC(=O)c1ccc(F)nc1)C(=O)O)C(=O)O [DCFPyL]

SMILES: CC(C)(C)[Si](F)(c1ccc(C(=O)N[C@H](CC(=O)O)C(=O)N[C@H](CC(=O)O)C(=O)NCC[N+](C)(C)CCn2cc(CCCCCCCCC(=O)NCCCC[C@H](NC(=O)N[C@@H](CCC(=O)O)C(=O)O)C(=O)O)nn2)cc1)C(C)(C)C [compound 14, {2-[(2R)-3-Carboxy-2-[(2R)-3-carboxy-2-({4-[di-tert-butyl(fluoro)silyl]phenyl}formamido)propanamido]propanamido]ethyl}({2-[4-(8-{[(5S)-5-carboxy-5-({[(1S)-1,3-dicarboxypropyl]carbamoyl}amino)pentyl]carbamoyl}octyl)-1H-1,2,3-triazol-1-yl]ethyl})dimethylazanium trifluoroacetate]
IC50 [3]: 154 ± 47 nM
